What was measured:
Assay type in all cases: in vivo
[1] = system: green peach aphid (Myzus persicae); assay: Green peach aphid, systemic, artificial diet in 96-well microtiter plates; conditions: 72 h, 3 days, read-out: mortality in comparison with untreated controls
Excerpt: a) For evaluating control of green peach aphid (Myzus persicae) through systemic means the test unit consisted of 96-well-microtiter plates containing liquid artificial diet under an artificial membrane.
The compounds were formulated using a solution containing 75% v/v water and 25% v/v DMSO. Different concentrations of formulated compounds were pipetted into the aphid diet, using a custom built pipetter, at two replications.
After application, 5-8 adult aphids were placed on the artificial membrane inside the microtiter plate wells. The aphids were then allowed to suck on the treated aphid diet and incubated at about 23±1° C. and about 50±5% relative humidity for 3 days. Aphid mortality and fecundity was then visually assessed.

[2] = system: vetch aphid (Megoura viciae); assay: Vetch aphid, broad bean leaf disks in 24-well microtiter plates; conditions: foliar, 120 h, sprayed leaf disks, 5 days, read-out: mortality in comparison with untreated controls
Description: For evaluating control of vetch aphid (Megoura viciae) through contact or systemic means the test unit consisted of 24-well-microtiter plates containing broad bean leaf disks.
The compounds were formulated using a solution containing 75% v/v water and 25% v/v DMSO. Different concentrations of formulated compounds were sprayed onto the leaf disks at 2.5 μl, using a custom built micro atomizer, at two replications.
After application, the leaf disks were air-dried and 5-8 adult aphids placed on the leaf disks inside the microtiter plate wells. The aphids were then allowed to suck on the treated leaf disks and incubated at about 23+1° C. and about 50+5% relative humidity for 5 days. Aphid mortality and fecundity was then visually assessed.

[3] = system: Cowpea Aphid (Aphis craccivora); assay: Cowpea aphid, spray on colonized cowpea plants; conditions: sprayed cowpea plants, after 72 hours, read-out: mortality in comparison with untreated controls
Description: The active compound is dissolved at the desired concentration in a mixture of 1:1 (vol:vol) distilled water: acetone. Surfactant (Kinetic® HV) is added at a rate of 0.01% (vol/vol). The test solution is prepared at the day of use.
Potted cowpea plants were colonized with approximately 30-50 aphids of various stages by manually transferring a leaf tissue cut from infested plant 24 hours before application. Plants were sprayed with the test solutions using a DeVilbiss® hand atom-izer at 20-30 psi (=1.38 to 2.07 bar) after the pest population has been checked. Treat-ed plants are maintained on light carts at about 25-26° C. Percent mortality was assessed after 72 hours.

[4] = system: Cotton Aphid (Aphis gossypii); assay: Cotton aphid, spray on infested cotton plants; conditions: 120 h, sprayed cotton plants, after 5 days, read-out: mortality in comparison with untreated controls
Description: (§1) The active compounds were formulated by a Tecan liquid handler in 100% cyclohexa-none as a 10,000 ppm solution supplied in tubes. The 10,000 ppm solution was serially diluted in 100% cyclohexanone to make interim solutions. These served as stock solu-tions for which final dilutions were made by the Tecan in 50% acetone:50% water (v/v) into 10 or 20 ml glass vials. A nonionic surfactant (Kinetic®) was included in the solution at a volume of 0.01% (v/v).
(§2) The vials were then inserted into an automated electrostatic sprayer equipped with an atomizing nozzle for application to plants/insects.
Cotton plants at the cotyledon stage were infested with aphids prior to treatment by placing a heavily infested leaf from the main aphid colony on top of each cotyledon. Aphids were allowed to transfer overnight to accomplish an infestation of 80-100 aphids per plant and the host leaf was removed. The infested plants were then sprayed by an automated electrostatic plant sprayer equipped with an atomizing spray nozzle. The plants were dried in the sprayer fume hood, removed from the sprayer, and then main-tained in a growth room under fluorescent lighting in a 24-hr photoperiod at 25° C. and 20-40% relative humidity. Aphid mortality on the treated plants, relative to mortality on untreated control plants, was determined after 5 days.

[5] = system: Rice Brown Plant Hopper (Nilaparvata lugens); assay: Rice brown plant hopper, sprayed rice seedlings; conditions: after 72 hours, read-out: mortality in comparison with untreated controls
Description: (§3) Rice seedlings were cleaned and washed 24 hours before spraying. The active compounds were formulated in 50:50 acetone:water (vol:vol) and 0.1% vol/vol surfactant (EL 620) was added. Potted rice seedlings were sprayed with 5 ml test solution, air dried, placed in cages and inoculated with 10 adults. Treated rice plants were kept at about 28-29° C. and relative humidity of about 50-60%. Percent mortality was recorded after 72 hours.

[6] = system: green peach aphid (Myzus persicae); assay: Green peach aphid, spray on infested bell pepper plants; conditions: 120 h, sprayed bell pepper plants, after 5 days, read-out: mortality in comparison with untreated controls
Description: as §1, with “b) The active” for “The active”
as §2
Bell pepper plants at the first true-leaf stage were infested prior to treatment by placing heavily infested leaves from the main colony on top of the treatment plants. Aphids were allowed to transfer overnight to accomplish an infestation of 30-50 aphids per plant and the host leaves were removed. The infested plants were then sprayed by an automated electrostatic plant sprayer equipped with an atomizing spray nozzle. The plants were dried in the sprayer fume hood, removed, and then maintained in a growth room under fluorescent lighting in a 24-hr photoperiod at about 25° C. and about 20-40% relative humidity. Aphid mortality on the treated plants, relative to mortality on untreated control plants, was determined after 5 days.

[7] = system: Orchid Thrips (Dichromothrips corbetti); assay: Orchid thrips, floral-immersion technique; conditions: dipped orchid flowers, 72 hours after treatment, read-out: mortality in comparison with untreated controls
Description: Dichromothrips corbetti adults used for bioassay were obtained from a colony maintained continuously under laboratory conditions. For testing purposes, the test compound is diluted in a 1:1 mixture of acetone:water (vol:vol), plus 0.01% vol/vol Alkamuls® EL 620 surfactant.
Thrips potency of each compound was evaluated by using a floral-immersion technique. Plastic petri dishes were used as test arenas. All petals of individual, intact orchid flowers were dipped into treatment solution and allowed to dry. Treated flowers were placed into individual petri dishes along with about 20 adult thrips. The petri dishes were then covered with lids. All test arenas were held under continuous light and a temperature of about 28° C. for duration of the assay. After 3 days, the numbers of live thrips were counted on each flower, and along inner walls of each petri dish. The percent mortality was recorded 72 hours after treatment.

[8] = system: Rice Green Leafhopper (Nephotettix virescens); assay: Rice green leafhopper, sprayed rice seedlings; conditions: after 72 hours, read-out: mortality in comparison with untreated controls
Description: as §3, with “(vol:vol),” for “(vol:vol)”

C[n+]1c([O-])c(-c2ccccc2)c(=O)n2c1SC(c1cnc(Cl)s1)C2 (centres unmarked) [compound 1]
> 75%: mortality at 2500 ppm [1] | mortality at 2500 ppm [2] | mortality at 500 ppm [3] | mortality at 300 ppm [4] | mortality at 500 ppm [5] | mortality at 2500 ppm [6] | mortality at 500 ppm [7] | mortality at 500 ppm [8]

Reference: patent publication US10149477B2, “Substituted pyrimidinium compounds for combating animal pests” (BASF SE, priority 2014, dated 2018)
